Data set [1] can be described thus: ABTS•+ decolorization assay. How it is done: The decolorization assay is used to evaluate the antioxidant activity. The ABTS^•+ cationic radical is derived from the direct oxidation of ABTS by potassium persulfate. No involvement of an intermediary radical is observed. The addition of electron-donating antioxidants reduce ABTS^•+.
Stock solutions of the tested compounds in DMSO (10 mM) were diluted. […] aliquots of each sample were added into the ABTS·^+ solution and the absorbance was recorded at room temperature. Trolox was used as a standard.

Data set [2] deals with T1, soybean lipoxygenase (Glycine max, UniProt P08170).
T1 sequence (P08170 1-839): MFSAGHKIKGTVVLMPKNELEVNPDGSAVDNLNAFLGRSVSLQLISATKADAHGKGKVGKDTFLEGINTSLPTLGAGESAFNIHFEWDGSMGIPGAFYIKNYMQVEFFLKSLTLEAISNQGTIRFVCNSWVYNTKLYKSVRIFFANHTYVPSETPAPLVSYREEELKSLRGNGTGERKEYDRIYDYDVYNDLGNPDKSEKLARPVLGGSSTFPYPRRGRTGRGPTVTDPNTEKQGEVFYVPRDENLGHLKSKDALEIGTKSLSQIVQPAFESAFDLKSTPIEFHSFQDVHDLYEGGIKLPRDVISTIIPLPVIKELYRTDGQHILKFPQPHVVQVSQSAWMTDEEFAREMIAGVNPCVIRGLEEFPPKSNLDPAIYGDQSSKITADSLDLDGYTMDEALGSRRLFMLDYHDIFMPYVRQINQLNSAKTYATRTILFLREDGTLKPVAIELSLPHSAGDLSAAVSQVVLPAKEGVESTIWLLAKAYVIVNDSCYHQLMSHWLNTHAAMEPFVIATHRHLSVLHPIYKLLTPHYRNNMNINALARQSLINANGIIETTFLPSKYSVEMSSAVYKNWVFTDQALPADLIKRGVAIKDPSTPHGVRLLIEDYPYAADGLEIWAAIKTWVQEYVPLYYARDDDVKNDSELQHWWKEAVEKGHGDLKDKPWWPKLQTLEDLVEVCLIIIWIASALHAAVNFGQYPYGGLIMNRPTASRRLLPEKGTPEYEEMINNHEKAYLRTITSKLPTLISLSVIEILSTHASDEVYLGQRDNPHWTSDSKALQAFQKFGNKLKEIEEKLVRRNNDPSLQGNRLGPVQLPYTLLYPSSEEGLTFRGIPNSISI
The data set is described as follows: biochemical. It counts as biochemical. The settings on record: soybean LOX; for pIC50: read-out: LOX IC50. The text has this: In our experiments we used soybean lipoxygenase. Designing agents to modulate activities of the variety of so closely homologous enzymes, such as different LOXs, require an intimate knowledge of their 3D structures, as well as information about metabolism of the potential xenobiotics. […] Due to lack of sufficiently-purified human enzymes most of the research has been done on soybean LOX [52, 53]. Although this enzyme is not identical to the mammalian one, it seems that there is a sufficient qualitative correlation between values for enzyme inhibition with the two enzymes.
In vitro study was evaluated as reported previously. The tested compounds as stock solutions were dissolved in DMSO. Ten microliters (10 μL) were incubated at room temperature with sodium linoleate ([…]) and 0.2 mL of enzyme solution (1/9 × 10^−4 w/v in saline) in buffer pH 9 (tris) at room temperature (final volume 1 mL). […] Several concentrations were used for the determination of IC50 values.

The nature of data set [3]: Inhibition of linoleic acid lipid peroxidation (AAPH). The text has this:
The water soluble 2,2′-azobis(2-amidinopropane) hydrochloride (AAPH) generates in vitro free radicals through spontaneous thermal decomposition. […] Overall, chalcones a, b, and c present anti-lipid peroxidation activity. […] The inhibiting activities for the rest b chalcones ranged from 15–44%. The intermediate ethers are moderate inhibitors. […] This might be correlated with the presence of the double C=C–COCH3 group. […] Both have a long ether chain in their structure.
In an aqueous solution spectrophotometrically at 234 nm the production of conjugated diene hydro peroxide by oxidation of sodium linoleate was monitored and recorded according to our previous published experimental conditions, using 10 µL of the 16 mM sodium linoleate solution added to the UV cuvette containing 930 μL of 0.05 M phosphate buffer, pH 7.4 pre-thermostated at 37 °C, under air by the addition of 50 μL of 40 mM AAPH solution, which was used as a free radical initiator. Ten microliters (10 μL) of the appropriate solutions of the tested compounds were added in the mixture, whereas same level of DMSO was used as a blank for the measurement of lipid oxidation. The rate of oxidation at 37 °C was monitored by recording the increase in absorption at 234 nm caused by conjugated diene hydro peroxides.

Data set [4] in a line: Lipophilicity as RM values by RP-TLC. It counts as physicochemical. The arrangement: key: RM = log[(1/Rf) − 1]. The settings on record: methanol/water 70/30, SD < 10%. The text has this: It is well-documented and discussed in the literature that lipophilicity is a very significant physicochemical property which may critically affect distribution, bioavailability, metabolic activity and elimination, all the useful characteristics for the kinetics of biologically active compounds. Thus, we attempted to determine experimentally the lipophilicity of the synthesized compounds from the RPTLC method as RM values. The method is considered to be a reliable, fast and convenient method for expressing lipophilicity. Moreover, many calculated methods were used in order to predict the logP value.
Reversed phase TLC (RP-TLC) was performed on silica gel plates impregnated with 5% (v/v) liquid paraffin in light petroleum ether. The mobile phase was a methanol/water mixture (70/30, v/v). The plates were developed in closed chromatography tanks saturated with the mobile phase at 24 °C. Spots were detected under UV light. Five individual measurements of Rf values were recorded and used for the determination of RM using the equation RM = log [(1/Rf) − 1]. (Table 3).

Data set [5] is described as follows: Reducing activity with the stable radical DPPH. How it is done:
The chalcones were studied for the antioxidant activity (reducing activity RA%) by the use of the stable free radical 2,2-diphenyl-1-picrylhydrazyl radical (DPPH) at concentrations 0.05 mM after 20 and 60 min (Table 2). In this procedure, the dominant chemical reaction involved is the reduction of the DPPH radical by single electron transfer from the antioxidant. […] For the sake of comparison, we measured the RA% values for the intermediate double ethers d which were included in the Table 2.
To a solution of DPPH (final concentration 0.05 mM) in absolute ethanol an equal volume of the compounds solution in DMSO (stock solution 10 mM) dissolved in ethanol was added. Absolute ethanol was used as a control. The concentrations of the solutions of the compounds were 0.05 and 0.1 mM. The absorbance was recorded at 517 nm at room temperature after 20 and 60 min [29] (Table 2).
(In general: The DPPH test is a chemical assay of radical scavenging.)

pIC50: −log10 of the molar value.

For `O=C(/C=C/c1ccc(OCc2ccc(Br)cc2)cc1)c1ccccc1O` [b1, (E)-3-(4-((4-bromobenzyl)oxy)phenyl)-1-(2-hydroxyphenyl) prop-2-en-1-one], the “ABTS•+ Inhb. % @ 100 μM” value in data set [1] is recorded as 40%. Further, in data set [2], the “% LOX Inhb. @ 100 μM” value is 89% and the pIC50 (in general, the negative decadic logarithm of the IC50, by convention in mol/L) was 4.25. In addition, the “AAPH% @ 100 μM (anti-lipid peroxidation)” value in data set [3] worked out at 89%. The RM in data set [4] is listed as −0.91. Moreover, in data set [5], the “RA% 100 μM 20 min” value is 46% and the “RA% 100 μM 60 min” value is listed as 0%.
For the compound `O=C(/C=C/c1cccc(Oc2ccccc2)c1)c1ccccc1O` [b2, (E)-1-(2-hydroxyphenyl)-3-(3-phenoxyphenyl) prop-2-en-1-one], the “ABTS•+ Inhb. % @ 100 μM” value in data set [1] was “No”. Also, in data set [2], the “% LOX Inhb. @ 100 μM” value amounted to 44%. In addition, the “AAPH% @ 100 μM (anti-lipid peroxidation)” value in data set [3] is given as 44%. Further, the RM in data set [4] amounted to 0.04. Also, in data set [5], the “RA% 100 μM 20 min” value is on record as 45% and the “RA% 100 μM 60 min” value stood at 15%.
For `CN(C)c1ccc(/C=C/C=C/C(=O)c2ccccc2O)cc1` [b3, (2E,4E)-5-(4-(dimethylamino)phenyl)-1-(2-hydroxyphenyl)penta-2,4-dien-1-one], the “ABTS•+ Inhb. % @ 100 μM” value in data set [1] came to 96%. For the same compound, in data set [2], the “% LOX Inhb. @ 100 μM” value was found to be 100% and the pIC50 is 4.24. For the same compound, the “AAPH% @ 100 μM (anti-lipid peroxidation)” value in data set [3] was 100%. Further, in data set [4], the RM was −0.66. In data set [5], the “RA% 100 μM 20 min” value came out at 72% and the “RA% 100 μM 60 min” value is recorded as 15%.
For the compound `O=C(/C=C/C=C/c1ccccc1)c1ccccc1O` [b7, (2E,4E)-1-(2-hydroxyphenyl)-5-phenylpenta-2,4-dien-1-one], the “ABTS•+ Inhb. % @ 100 μM” value in data set [1] was 5%. Besides, the “% LOX Inhb. @ 100 μM” value in data set [2] is recorded as 29%. The “AAPH% @ 100 μM (anti-lipid peroxidation)” value in data set [3] is recorded as 29%. For the same compound, the RM in data set [4] is −0.85. Moreover, in data set [5], the “RA% 100 μM 20 min” value is on record as 13% and the “RA% 100 μM 60 min” value came out at 0%.
As for `CC(/C=C/C(=O)c1ccccc1O)=C\c1ccccc1` [b8, (2E,4E)-1-(2-hydroxyphenyl)-4-methyl-5-phenylpenta-2,4-dien-1-one], the “ABTS•+ Inhb. % @ 100 μM” value in data set [1] worked out at 12%. Besides, the “% LOX Inhb. @ 100 μM” value in data set [2] was 25%. Also, the “AAPH% @ 100 μM (anti-lipid peroxidation)” value in data set [3] is 25%. Moreover, the RM in data set [4] was −0.79. In data set [5], the “RA% 100 μM 20 min” value is 17% and the “RA% 100 μM 60 min” value came to 3%.
Take `O=C(/C=C/C(Br)=C\c1ccccc1)c1ccccc1O` [b9, (2E,4E)-4-bromo-1-(2-hydroxyphenyl)-5-phenylpenta-2,4-dien-1-one]: in data set [1], the “ABTS•+ Inhb. % @ 100 μM” value is recorded as “No”. The “% LOX Inhb. @ 100 μM” value in data set [2] amounted to 16%. In addition, the “AAPH% @ 100 μM (anti-lipid peroxidation)” value in data set [3] was 17%. The RM in data set [4] is −0.37. For the same compound, in data set [5], the “RA% 100 μM 20 min” value worked out at 20% and the “RA% 100 μM 60 min” value worked out at 8%.
As to `O=C(/C=C/C=C/c1ccc([N+](=O)[O-])cc1)c1ccccc1O` [b11, (2E,4E)-1-(2-hydroxyphenyl)-5-(4-nitrophenyl) penta-2,4-dien-1-one], the “ABTS•+ Inhb. % @ 100 μM” value in data set [1] was “No”. The “% LOX Inhb. @ 100 μM” value in data set [2] worked out at 31%. The “AAPH% @ 100 μM (anti-lipid peroxidation)” value in data set [3] worked out at 31%. The same compound showed an RM in data set [4] of −0.91. In data set [5], the “RA% 100 μM 20 min” value was 4% and the “RA% 100 μM 60 min” value came out at 2%.
For the compound `O=C(/C=C/c1ccccc1)c1ccccc1O` [b13, (E)-1-(2-hydroxyphenyl)-3-phenylprop-2-en-1-one], in data set [1], the “ABTS•+ Inhb. % @ 100 μM” value was “No”. In addition, the “% LOX Inhb. @ 100 μM” value in data set [2] turned out to be 14%. The “AAPH% @ 100 μM (anti-lipid peroxidation)” value in data set [3] was found to be 15%. Moreover, the RM in data set [4] is on record as 0.43. In addition, in data set [5], the “RA% 100 μM 20 min” value was 10% and the “RA% 100 μM 60 min” value is listed as 0%.
On to `O=C(/C=C/c1ccccc1)c1ccc(OCCCOc2ccc(C(=O)/C=C/c3ccccc3)cc2)cc1` [c13, (2E,2′E)-1,1′-((propane-1,3-diylbis(oxy))bis(4,1-phenylene))bis(3-phenylprop-2-en-1-one)], for which, in data set [1], the “ABTS•+ Inhb. % @ 100 μM” value is on record as “No”. Further, in data set [2], the “% LOX Inhb. @ 100 μM” value turned out to be 76% and the pIC50 was 4.19. Moreover, the “AAPH% @ 100 μM (anti-lipid peroxidation)” value in data set [3] came to 71%. The RM in data set [4] is reported as 0.34. In addition, in data set [5], the “RA% 100 μM 20 min” value is “No” and the “RA% 100 μM 60 min” value is “no”.
As to `CN(C)c1ccc(/C=C/C=C/C(=O)c2ccc(OCCCCOc3ccc(C(=O)/C=C/C=C/c4ccc(N(C)C)cc4)cc3)cc2)cc1` [eiii, (2E,2′E,4E,4′E)-1,1′-((butane-1,4-diylbis(oxy))bis(4,1-phenylene))bis(5-(4-(dimethylamino)phenyl)penta-2,4-dien-1-one)], the “ABTS•+ Inhb. % @ 100 μM” value in data set [1] is given as “No”. In addition, the “% LOX Inhb. @ 100 μM” value in data set [2] is 27%. For the same compound, the “AAPH% @ 100 μM (anti-lipid peroxidation)” value in data set [3] was found to be 47%. This compound also yielded an RM in data set [4] of −0.07. In addition, in data set [5], the “RA% 100 μM 20 min” value is reported as “No” and the “RA% 100 μM 60 min” value is recorded as “no”.

Values taken from article PMC6337391 (Molecules, 2019).
